PMC7076352 (Pharmaceutics, 2020)

Columns and labels:
[1] = system: CYP2B6; test: In vitro cocktail CYP450 activity assay in rat liver microsomes, CYP2B6 (bupropion probe); details: for IC50 at 15 min: Sprague-Dawley, rat, pooled rat liver microsomes, pH 7.4, probe bupropion (90 µM, in seven-probe cocktail), IC50 CYP2B6, single components, RLM 0.2 mg/mL, triplicate, mean ± SD; for Response (% control) CYP2B6: at the Cmax level in rat plasma, calculated from the dose–response curve
Method: (§1) (OHBUP-[D6]) and 5 nM 4′-hydroxydiclofenac-[^13C6] (OHDIC-[^13C6]) as internal standards (ISs). […]
(§2) standard addition experiments. Each group included four concentration levels. For the PK […]
(§3) The probe compounds, viz. […]
(§4) chosen after incubating all the recruited substrates. In order to assure the linear relationship […]
(§5) The incubation system was also optimized in terms of substrate concentrations. The substrates concentrations of […]

[2] = system: CYP3A4; test: in vitro; details: for IC50: Sprague-Dawley, rat, microsomes, pH 7.4, IC50 CYP3A4, single components, RLM 0.2 mg/mL, 15 min, triplicate, mean ± SD; for Response (% control) CYP3A4: at the Cmax level in rat plasma, calculated from the dose–response curve
Method: as §1, §2, §3, §4, §5

[3] = system: CYP2D6; test: in vitro; details: Sprague-Dawley, rat; for IC50 at 15 min: microsomes, pH 7.4, IC50 CYP2D6
Method: as §1, §2, §3, §4, §5

[4] = system: CYP2C9; test: In vitro cocktail CYP450 activity assay in rat liver microsomes, CYP2C9 (tolbutamide probe); details: for IC50 at 15 min: Sprague-Dawley, rat, pooled rat liver microsomes, pH 7.4, probe tolbutamide (18 µM, in seven-probe cocktail), IC50 CYP2C9, single components, RLM 0.2 mg/mL, triplicate, mean ± SD
Method: as §1, §2, §3, §4, §5

[5] = system: CYP2C19; test: In vitro cocktail CYP450 activity assay in rat liver microsomes, CYP2C19 (omeprazole probe); details: for IC50 at 15 min: Sprague-Dawley, rat, pooled rat liver microsomes, pH 7.4, probe omeprazole (1.07 µM, in seven-probe cocktail), IC50 CYP2C19, single components, RLM 0.2 mg/mL, triplicate, mean ± SD; for Response (% control) CYP2C19: at the Cmax level in rat plasma, calculated from the dose–response curve
Method: as §1, §2, §3, §4, §5

[6] = molecular target: T1, CYP2E1 (Rattus norvegicus, UniProt P05182); details: Sprague-Dawley, rat, 15 min, pH 7.4
T1 sequence (P05182 whole entry): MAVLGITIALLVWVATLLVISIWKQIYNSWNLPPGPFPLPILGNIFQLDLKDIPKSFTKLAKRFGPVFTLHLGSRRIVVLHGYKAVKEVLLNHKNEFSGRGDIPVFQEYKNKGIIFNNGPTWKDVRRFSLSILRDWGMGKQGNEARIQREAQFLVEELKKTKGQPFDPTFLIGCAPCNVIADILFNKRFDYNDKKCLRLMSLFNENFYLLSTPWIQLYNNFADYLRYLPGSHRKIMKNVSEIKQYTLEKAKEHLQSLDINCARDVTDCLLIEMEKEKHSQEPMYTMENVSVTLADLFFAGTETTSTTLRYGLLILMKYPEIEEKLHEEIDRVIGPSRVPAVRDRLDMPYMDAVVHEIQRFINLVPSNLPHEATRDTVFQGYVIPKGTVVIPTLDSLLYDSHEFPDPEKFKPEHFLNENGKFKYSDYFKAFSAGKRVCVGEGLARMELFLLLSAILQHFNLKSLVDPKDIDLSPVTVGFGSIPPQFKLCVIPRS

[7] = molecular target: T1, CYP2E1; details: IC50 CYP2E1, single components; RLM 0.2 mg/mL, 15 min, triplicate, mean ± SD
[8] = in vivo; set-up: species or system Sprague-Dawley (SD) rats; details: Sprague-Dawley, plasma, rat; for concentration at […]: 0.083 h after oral CNP
Method: At each time, 0.5 mL of blood was collected in the heparin sodium tubes. Plasma was separated by centrifugation at 4000 rpm for 10 min and stored below −80 °C until bioanalysis. Oasis PRiME HLB SPE cartridges (1 cc/30 mg, Waters, Milford, MA, USA) were used to process the plasma samples (Supplementary Materials).
The generic layout of instrumentation setup of the LVDI-UHPLC-MS/MS was conducted on a Shimadzu UHPLC system consisting of two LC-20ADXR pumps, a DGU-20A3R degasser, and a CBM-20A controller (Kyoto, Japan) with a SCIEX 4500 QTRAP mass spectrometer mounted with an electron spray ionization (ESI) interface as well as an electronic 6-port/2-channel valve (Foster City, CA, USA). Analyst software package (version 1.6.2, SCIEX) was implemented to control and synchronize the entire system, and also for data acquisition and processing. A single analytical run was fragmented into two phases, namely, loading and elution phases, by switching the electronic valve (Figure 2). At the loading phase, the valve was maintained at A-channel. The specimen aliquot of large volume delivered from the auto-sampler was captured onto a guard column. Meanwhile, the pumps were responsible for delivering the mobile phase at a high flow rate, aiming to dilute the sample solvent, thus facilitating the candidate constituents to concentrate on the pre-guard column. Then, the valve was automatically switched to the B-channel to trigger the elution phase. The trapped components were flushed from the pre-guard column into an analytical column, and underwent multiple reaction monitoring (MRM) analysis on the optimized LC gradients. The detailed information of LVDI-UHPLC-MS/MS analysis for pharmacokinetic and cocktail studies is shown in the Supplementary Materials section.

[9] = molecular target: T2, CYP1A2 (Rattus norvegicus, UniProt P04799); test: In vitro cocktail CYP450 activity assay in rat liver microsomes, CYP1A2 (phenacetin probe); details: for IC50: IC50 CYP1A2, single components, RLM 0.2 mg/mL, 15 min, triplicate, mean ± SD; for Response (% control) CYP1A2: at the Cmax level in rat plasma, calculated from the dose–response curve
T2 sequence (P04799 1-513): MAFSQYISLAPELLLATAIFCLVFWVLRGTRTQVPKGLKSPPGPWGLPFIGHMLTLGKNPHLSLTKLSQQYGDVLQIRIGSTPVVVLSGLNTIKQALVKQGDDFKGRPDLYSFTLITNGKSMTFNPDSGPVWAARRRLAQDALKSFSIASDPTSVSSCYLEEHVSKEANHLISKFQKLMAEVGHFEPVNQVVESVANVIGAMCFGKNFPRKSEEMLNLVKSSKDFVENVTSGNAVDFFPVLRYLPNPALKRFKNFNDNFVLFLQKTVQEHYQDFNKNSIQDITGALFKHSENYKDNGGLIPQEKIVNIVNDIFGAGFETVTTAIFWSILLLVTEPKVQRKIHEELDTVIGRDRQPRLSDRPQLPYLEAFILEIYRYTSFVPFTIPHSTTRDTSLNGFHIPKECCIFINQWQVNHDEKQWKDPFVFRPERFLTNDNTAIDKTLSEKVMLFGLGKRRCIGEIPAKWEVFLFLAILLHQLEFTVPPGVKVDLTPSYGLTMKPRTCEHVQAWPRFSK
Method: as §1, §2, §3, §4, §5

Compound: CC(C)=CCC[C@](C)(O[C@@H]1O[C@H](CO)[C@@H](O)[C@H](O)[C@H]1O)[C@H]1CC[C@]2(C)[C@@H]1[C@H](O)C[C@@H]1[C@@]3(C)CC[C@H](O)C(C)(C)[C@@H]3[C@@H](O[C@@H]3O[C@H](CO)[C@@H](O)[C@H](O)[C@H]3O[C@@H]3O[C@@H](C)[C@H](O)[C@@H](O)[C@H]3O)C[C@]12C [GRe, ginsenoside Re]
- IC50 at 15 min [1]: 39.4 ± 4.81 µM
- Response (% control) CYP2B6 [1]: 99.64 % control
- IC50 [2]: 75.1 ± 7.24 µM
- Response (% control) CYP3A4 [2]: 99.99 % control
- IC50 at 15 min [3]: > 200 µM
- IC50 at 15 min [4]: > 200 µM
- IC50 at 15 min [5]: 50.5 ± 15.4 µM
- Response (% control) CYP2C19 [5]: 98.36 % control
- Response (% control) CYP2E1 [6]: 97.35 % control
- IC50 [7]: 25.6 ± 9.03 µM
- concentration at […] [8]: 0.24 ± 0.02 ng/mL
- concentration at 0.25 h ([8]; 0.25 h after oral CNP): 0.25 ± 0.01 ng/mL
- concentration at 0.5 h ([8]; 0.5 h after oral CNP): 0.33 ± 0.11 ng/mL
- concentration at 1 h ([8]; 1 h after oral CNP): 0.24 ± 0.04 ng/mL
- concentration at 1.5 h ([8]; 1.5 h after oral CNP): 0.24 ± 0.03 ng/mL
- concentration at 2 h ([8]; 2 h after oral CNP): 0.23 ± 0.02 ng/mL
- concentration at 3 h ([8]; 3 h after oral CNP): 0.28 ± 0.1 ng/mL
- concentration at 4 h ([8]; 4 h after oral CNP): 0.28 ± 0.07 ng/mL
- concentration at 6 h ([8]; 6 h after oral CNP): 0.23 ± 0.03 ng/mL
- concentration at 8 h ([8]; 8 h after oral CNP): 0.14 ± 0.03 ng/mL
- half-life ([8]; po): 5.99 ± 3.86 h
- AUC(0-inf) ([8]; po, 60 mg/kg): 2.9 ± 0.6 ng·h/mL
- AUC(0-t) ([8]; po, 60 mg/kg): 1.82 ± 0.19 ng·h/mL
- Cmax ([8]; po, 60 mg/kg): 0.29 ± 0.04 ng/mL
- Tmax ([8]; po, 60 mg/kg): 2.6 ± 0.89 h
- half-life ([8]; po, 60 mg/kg): 5.25 ± 2.27 h
- concentration at 0.25 h ([8]; po, 60 mg·kg^−1): 0.26 ± 0.02 ng/mL
- concentration at 0.5 h ([8]; po, 60 mg·kg^−1): 0.24 ± 0.02 ng/mL
- concentration at 1 h ([8]; po, 60 mg·kg^−1): 0.25 ± 0.02 ng/mL
- concentration at 1.5 h ([8]; po, 60 mg·kg^−1): 0.22 ± 0.02 ng/mL
- concentration at 2 h ([8]; po, 60 mg·kg^−1): 0.21 ± 0.01 ng/mL
- concentration at 3 h ([8]; po, 60 mg·kg^−1): 0.27 ± 0.04 ng/mL
- concentration at 4 h ([8]; po, 60 mg·kg^−1): 0.25 ± 0.05 ng/mL
- concentration at 6 h ([8]; po, 60 mg·kg^−1): 0.24 ± 0.06 ng/mL
- concentration at 8 h ([8]; po, 60 mg·kg^−1): 0.13 ± 0.01 ng/mL
- IC50 [9]: 94.4 ± 4.52 µM
- Response (% control) CYP1A2 [9]: 99.99 % control

Compound: CC(C)=CCC[C@](C)(O[C@@H]1O[C@H](CO)[C@@H](O)[C@H](O)[C@H]1O)[C@H]1CC[C@]2(C)[C@@H]1[C@H](O)C[C@@H]1[C@@]3(C)CC[C@H](O)C(C)(C)[C@@H]3[C@@H](O[C@@H]3O[C@H](CO)[C@@H](O)[C@H](O)[C@H]3O)C[C@]12C [GRg1, ginsenoside Rg1]
- IC50 at 15 min [1]: 11 ± 0.87 µM
- Response (% control) CYP2B6 [1]: 98.23 % control
- IC50 [2]: 39.2 ± 4.57 µM
- Response (% control) CYP3A4 [2]: 97.76 % control
- Response (% control) CYP2D6 ([3]; 15 min, pH 7.4): 99.88 % control
- IC50 at 15 min [3]: 55.7 ± 6.08 µM
- IC50 at 15 min [4]: 36.5 ± 1.32 µM
- Response (% control) CYP2C9 ([4]; at the Cmax level in rat plasma, calculated from the dose–response curve): 96.27 % control
- IC50 at 15 min [5]: 78.1 ± 5.25 µM
- Response (% control) CYP2C19 [5]: 99.83 % control
- Response (% control) CYP2E1 [6]: 99.57 % control
- IC50 [7]: 34.1 ± 4.76 µM
- concentration at […] [8]: 0.38 ± 0.15 ng/mL
- concentration at 0.25 h ([8]; 0.25 h after oral CNP): 0.48 ± 0.07 ng/mL
- concentration at 0.5 h ([8]; 0.5 h after oral CNP): 0.53 ± 0.37 ng/mL
- concentration at 1 h ([8]; 1 h after oral CNP): 0.4 ± 0.23 ng/mL
- concentration at 1.5 h ([8]; 1.5 h after oral CNP): 0.43 ± 0.32 ng/mL
- concentration at 2 h ([8]; 2 h after oral CNP): 0.4 ± 0.14 ng/mL
- concentration at 3 h ([8]; 3 h after oral CNP): 0.53 ± 0.4 ng/mL
- concentration at 4 h ([8]; 4 h after oral CNP): 0.47 ± 0.13 ng/mL
- concentration at 6 h ([8]; 6 h after oral CNP): 0.37 ± 0.17 ng/mL
- concentration at 8 h ([8]; 8 h after oral CNP): 0.65 ± 0.2 ng/mL
- concentration at 12 h ([8]; 12 h after oral CNP): 0.6 ± 0.36 ng/mL
- concentration at 24 h ([8]; 24 h after oral CNP): 0.34 ± 0.12 ng/mL
- concentration at 48 h ([8]; 48 h after oral CNP): 0.13 ± 0.04 ng/mL
- AUC(0-inf) ([8]; po, 60 mg/kg): 16.7 ± 3.93 ng·h/mL
- AUC(0-t) ([8]; po, 60 mg/kg): 14 ± 5.03 ng·h/mL
- Cmax ([8]; po, 60 mg/kg): 0.78 ± 0.13 ng/mL
- Tmax ([8]; po, 60 mg/kg): 4.71 ± 3.71 h
- half-life ([8]; po, 60 mg/kg): 11.7 ± 2.09 h
- concentration at 0.25 h ([8]; po, 60 mg·kg^−1): 0.56 ± 0.15 ng/mL
- concentration at 0.5 h ([8]; po, 60 mg·kg^−1): 0.37 ± 0.12 ng/mL
- concentration at 1 h ([8]; po, 60 mg·kg^−1): 0.44 ± 0.19 ng/mL
- concentration at 1.5 h ([8]; po, 60 mg·kg^−1): 0.33 ± 0.21 ng/mL
- concentration at 2 h ([8]; po, 60 mg·kg^−1): 0.21 ± 0.05 ng/mL
- concentration at 3 h ([8]; po, 60 mg·kg^−1): 0.49 ± 0.29 ng/mL
- concentration at 4 h ([8]; po, 60 mg·kg^−1): 0.34 ± 0.32 ng/mL
- concentration at 6 h ([8]; po, 60 mg·kg^−1): 0.37 ± 0.13 ng/mL
- concentration at 8 h ([8]; po, 60 mg·kg^−1): 0.63 ± 0.14 ng/mL
- concentration at 12 h ([8]; po, 60 mg·kg^−1): 0.59 ± 0.27 ng/mL
- concentration at 24 h ([8]; po, 60 mg·kg^−1): 0.22 ± 0.13 ng/mL
- concentration at 48 h ([8]; po, 60 mg·kg^−1): 0.09 ± 0.01 ng/mL
- IC50 [9]: 13.1 ± 8.24 µM
- Response (% control) CYP1A2 [9]: 98.46 % control
